Where two headings read alike, the source gives them in different places.
Assays:
CB1Rs = details: read-out: affinity for CB1Rs; ref Mechoulam et al. 1995; cited from earlier work
CB2Rs = details: read-out: affinity for CB2Rs; ref Mechoulam et al. 1995; cited from earlier work
mCB1Rs = mCB1Rs (Mus musculus, UniProt P47746); type: biochemical; details: for effect on basal G-protein activity ([35S]GTPγS binding): 10 µM
[1] = biological target: mouse brain CB1Rs (mCB1Rs) (Mus musculus, UniProt P47746); assay: biochemical; type: binding; details: for Selectivity: mCB1 versus hCB2 binding; for hCB2/mCB1 (Ki ratio): ratio of Ki hCB2 to Ki mCB1
mouse brain CB1Rs (mCB1Rs), sequence (P47746 whole entry): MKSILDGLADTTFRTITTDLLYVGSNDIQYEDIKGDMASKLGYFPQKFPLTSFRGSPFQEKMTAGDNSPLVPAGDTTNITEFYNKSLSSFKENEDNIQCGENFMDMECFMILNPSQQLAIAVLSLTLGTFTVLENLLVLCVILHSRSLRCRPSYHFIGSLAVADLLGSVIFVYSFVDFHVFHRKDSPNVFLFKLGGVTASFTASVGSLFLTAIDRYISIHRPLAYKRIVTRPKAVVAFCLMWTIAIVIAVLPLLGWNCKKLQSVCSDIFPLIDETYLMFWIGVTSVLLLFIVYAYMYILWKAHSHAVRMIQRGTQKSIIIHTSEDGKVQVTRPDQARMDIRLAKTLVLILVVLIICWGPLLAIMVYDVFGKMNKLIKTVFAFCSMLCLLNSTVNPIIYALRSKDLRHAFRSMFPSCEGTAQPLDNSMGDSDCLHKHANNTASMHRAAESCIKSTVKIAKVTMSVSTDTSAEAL

[2] = biological target: human CB2Rs (hCB2Rs) stably expressed in CHO cells (Homo sapiens, UniProt P34972); assay: biochemical; type: binding
human CB2Rs (hCB2Rs) stably expressed in CHO cells, sequence (P34972 whole entry): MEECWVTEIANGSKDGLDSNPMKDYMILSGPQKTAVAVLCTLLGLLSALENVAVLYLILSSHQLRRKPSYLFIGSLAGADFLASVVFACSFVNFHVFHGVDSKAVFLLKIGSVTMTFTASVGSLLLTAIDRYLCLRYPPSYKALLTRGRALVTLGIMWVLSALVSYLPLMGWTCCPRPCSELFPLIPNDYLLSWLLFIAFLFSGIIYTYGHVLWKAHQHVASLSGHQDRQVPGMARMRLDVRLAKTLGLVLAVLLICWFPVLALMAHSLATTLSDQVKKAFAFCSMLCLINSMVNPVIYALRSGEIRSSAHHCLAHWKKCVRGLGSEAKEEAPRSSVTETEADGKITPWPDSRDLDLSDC

[3] = co-administration with 10 µM of the compound
[4] = co-administration with 30 µM of the compound

mCB1Rs, sequence (P47746 whole entry): as the sequence (P47746 whole entry) above

Row | Compound | Ki [1] | Selectivity [1] | hCB2/mCB1 (Ki ratio) [1] | Ki [2] | effect on basal G-protein activity ([35S]GTPγS binding) (mCB1Rs; mouse brain membranes) | further results
1 | CCCCC/C=C\C/C=C\C/C=C\C/C=C\CCCC(=O)OC(CO)CO [2-arachidonoylglycerol] | – | – | – | – | – | Ki (CB1Rs): ~0.5 µM; Ki (CB2Rs): ~1.5 µM
2 | CC1=CC[C@@H]2[C@@H](C1)c1c(O)cc(CC#CCCCNS(C)(=O)=O)cc1OC2(C)C [O-2050, reference compound] | – | – | – | – | – | effect on G-protein activity ([35S]GTPγS binding) (mCB1Rs; mouse brain membranes, 1 µM): produced no effect
3 | CC(C)C=Cc1c(O)cc(/C=C/c2ccc(O)c(O)c2)cc1O [tA1, trans-4-(3-methyl-1-butenyl)-3,5,3′,4′-tetrahydroxystilbene] | 5.6 ± 0.4 µM | Non-selective | 2.3 | 12.6 ± 1.7 µM | markedly reduce | ED50 of CB1R agonist CP-55,940 to activate G-proteins on co-administration (mCB1Rs; [3]): 0.028 µM; fold increase (shift-to-the-right) in ED50 of CP-55,940 (mCB1Rs; [3]): 7 fold; maximal response produced by CP-55,940 on co-administration (mCB1Rs; [3]): 0.22 ± 0.04 pmol/mg protein; attenuation by O-2050 of the reduction of basal G-protein activity (mCB1Rs; compound 10 µM co-incubated with neutral CB1R antagonist O-2050 1 µM): did not significantly attenuate; glucuronidation by UGT1A1 (UGT1A1): no visible glucuronidation; concentration at which substrate inhibition is seen (UGT1A9): > 500 µM
4 | CC(C)C=Cc1c(O)cc(/C=C/c2ccc(O)cc2)cc1O [tA3, trans-4-(3-methyl-1-butenyl)-3,5,4′-trihydroxystilbene] | 17.5 ± 3.4 µM | Non-selective | 0.6 | 11.3 ± 0.6 µM | have little effect | ED50 of CB1R agonist CP-55,940 to activate G-proteins on co-administration (mCB1Rs; [4]): 0.127 µM; fold increase (shift-to-the-right) in ED50 of CP-55,940 (mCB1Rs; [4]): 30 fold
5 | Oc1cc(O)cc(/C=C/c2ccc(O)c(O)c2)c1 [tPice, trans 3,5,3′,4′-tetrahydroxystilbene, reference compound] | 11.7 ± 1 µM | CB1 | 9.7 | 114 ± 7.8 µM | markedly reduce | –
6 | Oc1ccc(/C=C/c2cc(O)cc(O)c2)cc1 [tRes, trans-3,5,4′-trihydroxystilbene, reference compound] | 14.3 ± 1.6 µM | – | – | – | – | –
